Reference: patent EP4514928B1, “USE OF AN ANTIOXIDANT FOR REDUCING AND/OR PREVENTING THE TOXICITY OF A LUBRICANT COMPOSITION” (priority 2022, dated 2023)

Columns and labels:
Planaires adultes entier = conditions: adult planarians, 12 days, checks at 7 and 12 days, 0,22 mg/L - 22 mg/L; for Concentration à partir de laquelle une mortalité significative du planaire est observée: according to Zhang et al. 2019; for Concentration à partir de laquelle sont observés des troubles du comportement potentiellement liés à des troubles cognitifs du planaire: adhérence, vitesse de déplacement, repos, phototaxie, scrunching
Protocol: La méthodologie utilisée est la suivante Tous les composés sont fournis sous forme de poudres. Un volume approprié de DMSO 100 % (Sigma) a été ajouté, comme indiqué sur les tubes, pour obtenir une solution mère à 4,4 mg/ml (soit 200 fois plus concentrée que la concentration maximale de test).

vie aquatique = conditions: long-term effects; cited from earlier work
[1] = cited from earlier work

Compound | Concentration à partir de laquelle une mortalité significative du planaire est observée (Planaires adultes entier) | Concentration à partir de laquelle sont observés des troubles du comportement potentiellement liés à des troubles cognitifs du planaire (Planaires adultes entier) | Toxicité (Informations ECHA - 2021): vie aquatique (écotoxique) (vie aquatique) | Toxicité (Informations ECHA - 2021): toxicité aiguë ([1]; if swallowed) | Toxicité (Informations ECHA - 2021): dommages aux organes ([1]; prolonged or repeated exposure)
CC(C)CC(C)Nc1ccc(Nc2ccccc2)cc1 (centres unmarked) [compound 22, N-(1,3-Diméthylbutyl)-N'-phényl-p-phénylènediamine] | 4,8 mg/L | 1,5 mg/L | – | – | –
c1ccc(Nc2cccc3ccccc23)cc1 [compound 19, N-phénylnaphthalène-1-amine] | 6,9 mg/L | 2,2 -3,9 mg/L | Est très toxique pour la vie aquatique avec des effets à long terme (écotoxique) | est nocif s'il est avalé (toxicité aiguë) | peut causer des dommages aux organes par exposition prolongée ou répétée
Bis(nonylphényl)amine [Irganox® L67] | – | – | Est nocif pour la vie aquatique avec des effets à long terme (écotoxique) https://echa.europa.eu/fr/substance-information/-/substanceinfo/100.048.393 Evaluation en 2021 pour suspicion de Mutagénicité et PBT | – | –
